Measured values taken from patent US6603023B2 (priority 1996, dated 2003).
“And” between values parts separate entries of the source, which are not always exact repeats. Equal values may be shown once. Where a name gives a salt, the structure may show the parent alone. Read-outs that look alike come from different tables or passages of the source.

Experiments:
[1] = test system: CCRF-CEM human T-cell acute lymphoblastic leukemia cell line; assay: XTT cytotoxicity (cell growth inhibition), CCRF-CEM; conditions: Homo sapiens, CCRF-CEM, 72 h, Table 1A; XTT
Summary of the method: (§1)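 Cells seeded at 5×10^4 cells/mL in RPMI-1640 + 10% heat-inactivated FBS, 37 °C/5% CO2; resistant lines cultured continuously with selecting agent. 72 h drug incubation. XTT (1 mg/mL) mixed with PMS to 0.025 mM PMS, 4 h, read 450 nm/630 nm.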

[2] = test system: CCRF-CEM/Taxol®; assay: cells; type: cell-based, human; conditions: Homo sapiens, CCRF-CEM, 72 h
Summary of the method: as §1

[3] = test system: CCRF-CEM/VBL100; assay: cells; type: cell-based, human; conditions: Homo sapiens, CCRF-CEM, 72 h, Table 1A; XTT
Summary of the method: as §1

[4] = test system: CCRF-CEM/VM1; assay: cells; type: cell-based, human; conditions: Homo sapiens, CCRF-CEM, 72 h, Table 1A; XTT
Summary of the method: as §1

[5] = test system: DC-3F hamster lung fibroblast cell line; assay: SRB cytotoxicity, DC-3F; type: cell-based; conditions: Mesocricetus auratus, DC3F, 72 h, Table 1C; SRB
Summary of the method: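 Monolayer cultures grown in RPMI 1640-10% FBS at 37 °C, 5% CO2, with resistant sublines kept under their selecting agent. Cytotoxicity determined by SRB protein staining (TCA fixation, absorbance 570 nm) in duplicate at six to seven drug concentrations. ED50 obtained by median-effect plot analysis.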

[6] = test system: DC-3F/ADX; assay: cells; type: cell-based, hamster; conditions: DC3F/ADX, 72 h, Table 1C; SRB
Summary of the method: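 Hamster lung fibroblast DC-3F sublines selected with actinomycin D (ADII moderate, ADX very strong MDR), maintained under selecting agent in RPMI 1640-10% FBS at 37° C. Monolayers exposed to six to seven drug concentrations in duplicate, TCA-fixed, stained with 0.4% SRB; absorbance 570 nm, analyzed by median-effect plot.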

[7] = test system: murine leukemic P388/0; assay: XTT cytotoxicity, P388/0; type: cell-based; conditions: Mus musculus, P388, 72 h
Method: (§2) The DC-3F hamster lung fibroblast cell line and its actinomycin D-selected sublines (DC-3F/ADII and DC-3F/ADX) were obtained from the Memorial Sloan-Kettering Cancer Center (MSKCC).
(§3) The drug-resistant cell lines were continuously cultured in the presence of the selecting agent, AD, DX, VBL or VM to maintain the drug resistant phenotypes. […] All cells were cultured in RPMI 1640-10% FBS at 37° C. 5% CO2 (see below).
(§4) The cells were cultured at an initial density of 5×10^4 cells/mL. They were maintained in a 5% CO2-humidified atmosphere at 37° C. in RPMI-1640 medium (GIBCO-BRL, Gaithersburg, Md.) containing penicillin (100 U/mL), streptomycin ([…]) (GIBCO-BRL) and 10% heat inactivate fetal bovine serum. Culture for cell suspension (such as for CCRF-CEM, P388 and sublines), were performed by the XTT-microculture tetrazonium method (Scudiero, D. A. et al., Cancer Res. 1988, 48, 4827-4833) in duplicate in 96-well microtiter plates.
(§5) 2′,3′-Bis(methoxy-4-nitro-5-sufophenyl)-5-[(phenylamino)carbonyl]2H-tetrazolium hyudroxide (XTT) was prepared at 1 mg/mL in prewarmed (37° C.) medium without serum. Phenazine methosulfate (PMS) and fresh XTT were mixed together to obtain 0.025 mM PMS-XTT solution (25 μL of the stock 5 mM PMS was added per 5 mL of 1 mg/mL XTT). Following a 72 h incubation, 50 μL of the assay aliquots were added to each well of the cell culture. After incubation at 37° C. for 4 h, absorbance at 450 nm and 630 nm was measured with a microplate reader (EL340, Bio-Tek Instruments, Inc., Winooski, Vt.).

[8] = test system: P388/Adr; assay: cells; type: cell-based, murine; conditions: Mus musculus, P388/ADR, 72 h
Method: as §3, §4, §5

[9] = test system: human neuroblastoma SK-N-As; assay: SRB cytotoxicity, SK-N-As; type: cell-based; conditions: Homo sapiens, SK-N-AS, 72 h
Method: as §2, §3
(§6) The cytotoxicity of the drug toward the monolayer cell cultures (such as DC-3F, MCF-7, SK-N-As and sublines) was determined in 96-well microtiter plates by the SRB method as described by Skehan and co-workers (Skehan, P., et al., J. Natl. Cancer Inst. 1990, 82, 1107-1112) for measuring the cellular protein content. Cultures were fixed with trichloroacetic acid and then stained for 30 min with 0.4% suforhodamine B dissolved in 1% acetic acid. Unbound dye was removed by acetic acid washes, and the protein-bound dye was extracted with an unbuffered Tris base (tris(hydroxy-methyl)aminomethane) for determination of absorbance at 570 nm in a 96-well microtiter plate reader. The experiments were carried out in duplicate. Each run entailed six to seven concentrations of the tested drugs. Data were analyzed with the median-effect plot (Chou, T.-C. & Talalay, P. T. (1984) Adv. Enzyme Regul. 22, 27-55) using a previously described computer program (Chou, J., & Chou T.-C. 1987, Dose-effect analysis with microcomputers: Quantitation of ED50, synergism, antagonism, low-dose risk, reception-ligand binding and enzyme kinetics, IBM-PC software and manual, Biosoft, Cambridge, U.K.).

[10] = test system: SK-N-FI; assay: cells; type: cell-based, human; conditions: Homo sapiens, SK-N-FI, 72 h
Method: as §3, §6

[11] = test system: MCF-7; assay: SRB cytotoxicity, MCF-7; type: cell-based, human; conditions: Homo sapiens, MCF7, 72 h
Method: as §6

[12] = test system: MCF-7/Adr; assay: cells; type: cell-based, human; conditions: Homo sapiens, NCI/ADR-RES, 72 h
Method: Cultures were fixed with trichloroacetic acid and then stained for 30 min with 0.4% suforhodamine B dissolved in 1% acetic acid. Unbound dye was removed by acetic acid washes, and the protein-bound dye was extracted with an unbuffered Tris base (tris(hydroxy-methyl)aminomethane) for determination of absorbance at 570 nm in a 96-well microtiter plate reader. The experiments were carried out in duplicate. Each run entailed six to seven concentrations of the tested drugs.

[13] = test system: human mammary carcinoma MX-1 xenograft
Method: (§7) DMSO was used as a vehicle for epothilones. Each mouse received ≦40 μL DMSO in all experiments.
(§8) Athymic nude mice (nu/nu) were used for MX-1 and MCF-7/Adr human mammary carcinoma xenografts. Mice were obtained from Taconic Laboratory Animals and Service (Germantown, N.Y.: outbred, Swiss background).

[14] = in vivo; conditions: male, athymic nude (nu/nu), outbred, Swiss background, mouse, in vivo, ip
Method: as §7, §8

[15] = test system: MDR human mammary adenocarcinoma MCF-7/Adr xenograft; assay: in vivo
Method: as §7, §8

[16] = male, athymic nude (nu/nu), outbred, Swiss background, mouse, in vivo
[17] = high doses: Taxol 12, Adriamycin 3, Camptothecin 3.0 mg/kg i.p. day 8,10,12,14,16

Question: What does the source list for `COc1cccc2c1C(=O)c1c(O)c3c(c(O)c1C2=O)C[C@@](O)(C(=O)CO)C[C@@H]3O[C@H]1C[C@H](N)[C@H](O)[C@H](C)O1` [Adriamycin, doxorubicin or adriamycin HCl]?
Answer: IC50 [1]: 36 nM; IC50 [2]: 82 nM; IC50 [3]: 1740 nM; IC50 [4]: 128 nM; IC50 [5]: 18 nM; IC50 [6]: 2240 nM; IC50 [7]: 5.5 nM; IC50 [8]: 2650 nM; IC50 [9]: 77 nM; IC50 [10]: 1420 nM; IC50 [11]: 57 nM; IC50 [12]: 216 nM; Tumor Disappearance ([13]; 2 mg/kg i.p. d8,10,12,14,16): 1/10; Tumor Disappearance ([13]; 3 mg/kg i.p. d8,10,12,14,16): 4/6; tumor volume reduction ([13]; adriamycin 2 mg/kg i.p. Q2Dx5 from day 8): 28%; lethality [13, 16]: 4/6; lethality (mice died of toxicity) [13, 16]: 1/10; LD50 [14]: 3 mg/kg; tumor growth suppression ([15]; DX 2 mg/kg): slight growth suppression; Average Tumor Volume (T/C), Day 11 [15, 17]: 0.66 T/C; Average Tumor Volume (T/C), Day 13 [15, 17]: 0.83 T/C; Average Tumor Volume (T/C), Day 15 [15, 17]: 0.57 T/C; Average Tumor Volume (T/C), Day 17 [15, 17]: 0.53 T/C; lethality [15, 16]: 3/6; tumor size reduction ([15]; mouse, in vivo): 22%; Average Tumor Size (T/C) ([15]; mouse, in vivo, HCl): 0.78 and 0.70 and 0.68 and 0.84 and 0.53 and 0.66 and 0.83 and 0.57
